Source: patent publication US20250352555A1, “METHOD OF INCREASING IMMUNE CELL ACTIVATION AND/OR TREATING CANCER USING DIBENZOXAZEPINONES” (VASCULAR THERAPEUTICS PTY LTD, priority 2022, published 2025)

Key:
JUN = assay: Western blotting for JUN, A375 cells; type: cell-based, human; settings: A375 cells (BRAF^V600E), 24 h, dose-dependent
Protocol: (§1) Western blotting. Cells were treated with compounds and times indicated and total cell lysates were prepared in RIPA buffer. Lysates (10 μg) were resolved by SDS-PAGE and transferred to Immobilon-P polyvinylidene difluoride (PVDF) membranes (Millipore, USA).
Membranes were blocked with 5% skim milk and incubated with rabbit monoclonal anti-c-Jun (Abcam, cat. no. ab32137; mouse, rat and human reactive) antibody, rabbit monoclonal anti-PD-1 (Abcam, cat. no. ab214421) antibody, mouse monoclonal β-actin antibody (Sigma-Aldrich, cat. no. A5316), anti-phospho-SAPK/JNK (Thr^183/Tyr^185) (98F2) (CST, cat. no. 4671) antibody, anti-phospho-p44/42 MAPK (ERK1/2) (Thr^202/Tyr^204) (D13.14.4E) (CST, cat. no. 4370) antibody, anti-phospho-p38 MAPK (Thr^180/Tyr^182) (D3F9) (CST, cat. no. 4511) antibody, anti-SAPK/JNK antibody (CST, cat. no. 9252), anti-p44/42 MAPK (ERK1/2) (137F5) antibody (CST, cat. no. 4695), anti-p38 MAPK antibody (CST, cat. no. 9212), anti-DUSP8 antibody (Abcam, cat. no. ab198175) or anti-c-MAF (BLR045F) antibody (Abcam, cat. no. ab243901). […] Chemiluminescence was detected using the Western Lightning Chemiluminescence system (Thermo Scientific, USA) and ImageQuant™ LAS 4000 biomolecular imager (GE Healthcare Life Sciences, USA). Band intensity in images generated with the LAS 4000 was quantified using NIH Image J. […]

p-ERK (Thr^202/Tyr^204) = assay: Western blotting for p-ERK, A375 melanoma cells; type: cell-based, human; settings: 10 or 100 nM, 24 h
Protocol: as §1
Membranes were blocked with 5% skim milk and incubated with rabbit monoclonal anti-c-Jun (Abcam, cat. no. ab32137; mouse, rat and human reactive) antibody, rabbit monoclonal anti-PD-1 (Abcam, cat. no. ab214421) antibody, mouse monoclonal β-actin antibody (Sigma-Aldrich, cat. no. A5316), anti-phospho-SAPK/JNK (Thr^183/Tyr^185) (98F2) (CST, cat. no. 4671) antibody, anti-phospho-p44/42 MAPK (ERK1/2) (Thr^202/Tyr^204) (D13.14.4E) (CST, cat. no. 4370) antibody, anti-phospho-p38 MAPK (Thr^180/Tyr^182) (D3F9) (CST, cat. no. 4511) antibody, anti-SAPK/JNK antibody (CST, cat. no. 9252), anti-p44/42 MAPK (ERK1/2) (137F5) antibody (CST, cat. no. […] Chemiluminescence was detected using the Western Lightning Chemiluminescence system (Thermo Scientific, USA) and ImageQuant™ LAS 4000 biomolecular imager (GE Healthcare Life Sciences, USA). Band intensity in images generated with the LAS 4000 was quantified using NIH Image J.
The effect of BT2 on ERK phosphorylation (p-ERK) was evaluated in human melanoma cells given that MAP kinase activation is key to melanoma progression and the paucity of clinically approved ERK inhibitors. […]

## CCOC(=O)Nc1ccc2c(c1)C(=O)N(CC)c1ccccc1O2 [BT2, (10-ethyl-11-oxo-10,11-dihydro-dibenzo[b,f][1,4]oxazepin-2-yl)-carbamic acid ethyl ester]
JUN
  JUN expression (Western blot): increased
p-ERK (Thr^202/Tyr^204)
  ERK phosphorylation (p-ERK, Western blot): suppressed ERK phosphorylation
